From patent US20130096100A1, “DI(ARYLAMINO)ARYL COMPOUND” (ASTELLAS PHARMA INC., priority 2007, published 2013)

Tests used:
MUSK [1] = molecular target: T1, MUSK (Homo sapiens, UniProt O15146); assay: Inhibitory activity against the kinase activity of MUSK protein (Test Example 7); assay type: biochemical; parameters: purchased Carna Biosciences Inc., Japan; conditions: ATP 10 μM, reaction 1 hour, HTRF KinEASE-TK
T1 sequence (O15146 24-869): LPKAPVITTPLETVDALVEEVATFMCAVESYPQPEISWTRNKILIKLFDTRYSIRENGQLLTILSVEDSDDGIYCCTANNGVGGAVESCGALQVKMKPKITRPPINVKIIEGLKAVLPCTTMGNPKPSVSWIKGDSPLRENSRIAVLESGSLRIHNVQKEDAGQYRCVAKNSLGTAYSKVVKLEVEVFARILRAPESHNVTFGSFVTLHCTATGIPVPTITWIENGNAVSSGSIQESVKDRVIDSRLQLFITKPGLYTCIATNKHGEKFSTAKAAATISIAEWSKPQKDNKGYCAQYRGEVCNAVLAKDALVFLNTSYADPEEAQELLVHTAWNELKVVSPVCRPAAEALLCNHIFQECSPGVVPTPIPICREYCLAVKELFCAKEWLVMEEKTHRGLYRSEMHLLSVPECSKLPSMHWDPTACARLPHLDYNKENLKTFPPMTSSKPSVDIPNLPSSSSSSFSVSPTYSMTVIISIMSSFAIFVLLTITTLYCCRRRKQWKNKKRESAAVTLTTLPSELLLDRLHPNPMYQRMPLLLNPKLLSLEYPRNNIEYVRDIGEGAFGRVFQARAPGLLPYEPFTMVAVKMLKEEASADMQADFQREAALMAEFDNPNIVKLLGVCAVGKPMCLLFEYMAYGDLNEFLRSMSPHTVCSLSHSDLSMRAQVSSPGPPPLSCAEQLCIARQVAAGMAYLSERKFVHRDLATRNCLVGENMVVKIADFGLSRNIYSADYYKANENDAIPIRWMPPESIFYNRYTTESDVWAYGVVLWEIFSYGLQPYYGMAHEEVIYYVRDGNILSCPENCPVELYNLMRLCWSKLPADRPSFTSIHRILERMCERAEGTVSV
Method: MUSK protein (Carna Biosciences Inc., Japan) was investigated for its phosphorylation activity toward a peptide substrate by using a kinase activity detection kit (HTRF KinEASE-TK; Cisbio Inc.). […] The ATP concentration used was 10 μM. Another reaction solution was prepared to contain the enzyme protein but no test compound (in which the solvent DMSO alone was added at 0.4% in place of the test compound), followed by reaction in the same manner with or without ATP addition. […] The concentration causing 50% inhibition (IC50) was calculated for each test compound by the logistic regression method.

[2] = Toxicity test in rats, 7-day repeated oral administration (Test Example 5); assay type: in vivo, SD rats; conditions: 7 days; for Non-toxic dose: oral; for Dose: Bone marrow inhibition / Dose: Exacerbation of common symptoms / Dose: Moribund condition: SD, rat, in vivo, po
From the text: Test compounds were each suspended in a 0.5% aqueous methylcellulose solution and repeatedly administered to SD rats (two females and four males in each group) by the oral route at each dose for 7 days.

88 types of kinases = assay: Kinase inhibition profiling, 88 types of kinases (Test Example 6); assay type: biochemical; conditions: concentration of 100 nM
MER = molecular target: T2, MER (Homo sapiens, UniProt Q12866); assay: Kinase inhibition profiling, MER (Test Example 6); assay type: biochemical; conditions: 100 nM; read-out: inhibitory activity against MER
T2 construct: purchased Carna Biosciences Inc., Japan (contract measurement)
T2 sequence (Q12866 21-999): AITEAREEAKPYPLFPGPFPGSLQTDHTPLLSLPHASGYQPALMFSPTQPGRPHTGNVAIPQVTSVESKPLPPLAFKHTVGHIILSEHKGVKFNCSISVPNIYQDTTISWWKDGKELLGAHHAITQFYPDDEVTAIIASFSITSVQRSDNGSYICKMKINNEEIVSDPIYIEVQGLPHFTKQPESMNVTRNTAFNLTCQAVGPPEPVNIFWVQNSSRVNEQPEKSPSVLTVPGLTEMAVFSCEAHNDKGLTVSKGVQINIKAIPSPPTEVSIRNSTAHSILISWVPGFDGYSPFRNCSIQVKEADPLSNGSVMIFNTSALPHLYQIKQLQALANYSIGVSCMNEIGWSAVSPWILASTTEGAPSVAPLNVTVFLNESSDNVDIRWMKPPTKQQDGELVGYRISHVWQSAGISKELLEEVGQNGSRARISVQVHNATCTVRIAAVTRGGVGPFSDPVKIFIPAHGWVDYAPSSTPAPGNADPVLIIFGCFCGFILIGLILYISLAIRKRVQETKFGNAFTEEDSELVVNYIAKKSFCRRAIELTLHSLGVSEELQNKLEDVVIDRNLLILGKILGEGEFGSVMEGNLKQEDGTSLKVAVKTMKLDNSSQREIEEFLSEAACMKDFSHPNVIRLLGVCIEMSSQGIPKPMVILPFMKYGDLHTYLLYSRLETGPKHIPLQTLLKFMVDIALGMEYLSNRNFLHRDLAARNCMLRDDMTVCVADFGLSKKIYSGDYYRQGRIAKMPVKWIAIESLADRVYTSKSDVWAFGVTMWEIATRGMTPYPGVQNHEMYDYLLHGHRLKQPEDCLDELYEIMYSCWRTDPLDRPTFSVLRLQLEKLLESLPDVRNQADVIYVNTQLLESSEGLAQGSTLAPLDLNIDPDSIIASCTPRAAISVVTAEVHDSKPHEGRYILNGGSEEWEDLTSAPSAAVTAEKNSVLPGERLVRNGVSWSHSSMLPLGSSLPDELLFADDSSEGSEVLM

PHKG1 = molecular target: T3, PHKG1 (Homo sapiens, UniProt Q16816); assay: Kinase inhibition profiling, PHKG1 (Test Example 6); assay type: biochemical; conditions: 100 nM; read-out: inhibitory activity against PHKG1
T3 construct: purchased Carna Biosciences Inc., Japan (contract measurement)
T3 sequence (Q16816 whole entry): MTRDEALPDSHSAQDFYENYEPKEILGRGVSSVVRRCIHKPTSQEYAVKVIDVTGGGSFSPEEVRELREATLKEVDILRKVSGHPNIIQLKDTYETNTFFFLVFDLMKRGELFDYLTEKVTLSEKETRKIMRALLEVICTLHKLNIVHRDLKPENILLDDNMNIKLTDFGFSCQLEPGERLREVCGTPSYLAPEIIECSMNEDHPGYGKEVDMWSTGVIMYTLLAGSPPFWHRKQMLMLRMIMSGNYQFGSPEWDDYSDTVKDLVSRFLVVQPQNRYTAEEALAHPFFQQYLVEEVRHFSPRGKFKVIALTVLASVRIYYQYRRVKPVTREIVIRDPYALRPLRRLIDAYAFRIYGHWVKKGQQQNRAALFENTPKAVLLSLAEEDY

MNK1 = molecular target: T4, MNK1 (Homo sapiens, UniProt Q9BUB5); assay: Kinase inhibition profiling, MNK1 (Test Example 6); assay type: biochemical; conditions: 100 nM; read-out: inhibitory activity against MNK1
T4 construct: purchased Carna Biosciences Inc., Japan (contract measurement)
T4 sequence (Q9BUB5 whole entry): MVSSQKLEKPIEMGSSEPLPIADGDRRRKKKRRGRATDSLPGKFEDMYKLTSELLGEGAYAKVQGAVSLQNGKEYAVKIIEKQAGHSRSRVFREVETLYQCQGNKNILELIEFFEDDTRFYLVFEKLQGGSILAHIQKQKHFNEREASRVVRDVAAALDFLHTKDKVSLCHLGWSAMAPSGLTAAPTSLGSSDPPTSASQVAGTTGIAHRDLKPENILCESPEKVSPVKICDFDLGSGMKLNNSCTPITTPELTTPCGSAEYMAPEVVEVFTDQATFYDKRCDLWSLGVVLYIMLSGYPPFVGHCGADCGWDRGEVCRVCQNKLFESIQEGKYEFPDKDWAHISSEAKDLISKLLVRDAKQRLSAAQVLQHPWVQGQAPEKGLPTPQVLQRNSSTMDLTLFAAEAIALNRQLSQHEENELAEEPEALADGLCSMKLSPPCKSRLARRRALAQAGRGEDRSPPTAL

MNK2 = molecular target: T5, MNK2 (Homo sapiens, UniProt Q9HBH9); assay: Kinase inhibition profiling, MNK2 (Test Example 6); assay type: biochemical; conditions: 100 nM; read-out: inhibitory activity against MNK2
T5 construct: purchased Carna Biosciences Inc., Japan (contract measurement)
T5 sequence (Q9HBH9 whole entry): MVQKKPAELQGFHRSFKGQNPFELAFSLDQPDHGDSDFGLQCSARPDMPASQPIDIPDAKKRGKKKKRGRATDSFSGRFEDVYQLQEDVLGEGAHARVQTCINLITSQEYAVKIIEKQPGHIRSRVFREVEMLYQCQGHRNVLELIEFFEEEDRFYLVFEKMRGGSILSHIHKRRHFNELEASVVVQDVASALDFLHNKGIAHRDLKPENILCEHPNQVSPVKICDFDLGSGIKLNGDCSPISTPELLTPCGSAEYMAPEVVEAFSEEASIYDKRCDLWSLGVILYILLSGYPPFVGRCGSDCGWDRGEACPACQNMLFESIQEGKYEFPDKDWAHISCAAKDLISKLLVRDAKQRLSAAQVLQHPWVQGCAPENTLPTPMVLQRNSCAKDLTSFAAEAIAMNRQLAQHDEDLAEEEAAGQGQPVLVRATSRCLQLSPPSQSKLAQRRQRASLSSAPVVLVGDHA

MUSK [3] = molecular target: T1, MUSK; assay: Kinase inhibition profiling, MUSK (Test Example 6); assay type: biochemical; parameters: purchased Carna Biosciences Inc., Japan (contract measurement); conditions: 100 nM; read-out: inhibitory activity against MUSK

CCNS(=O)(=O)c1ccccc1Nc1ncnc(Nc2ccc(N3CCC(N4CCN(C)CC4)CC3)cc2OC)n1 [Example 123]
IC50 (MUSK [1]): 1100 nM

COc1cc(N2CCC(N3CCN(C)CC3)CC2)ccc1Nc1ncnc(Nc2ccccc2S(=O)(=O)C(C)C)n1 [Example 23]
Non-toxic dose ([2]; female SD rats (2 rats)): 10 mg/kg | Dose: Bone marrow inhibition ([2]; female): 100 mg/kg | Dose: Exacerbation of common symptoms ([2]; female): (>300) mg/kg | Dose: Moribund condition ([2]; female): (>300) mg/kg | Non-toxic dose ([2]; male SD rats (4 rats)): 10 mg/kg | Dose: Bone marrow inhibition ([2]; male): 100 mg/kg | Dose: Exacerbation of common symptoms ([2]; male): (>300) mg/kg | Dose: Moribund condition ([2]; male): (>300) mg/kg | number of types of kinases (of 88) with 50% or more inhibitory activity (88 types of kinases): 4 types of kinases | inhibition at 0.1 µM (MER): < 20% | inhibition at 0.1 µM (PHKG1): < 20% | inhibition at 0.1 µM (MNK1): 60% | inhibition at 0.1 µM (MNK2): 80% | IC50 (MUSK [1]): 1500 nM | inhibition at 0.1 µM (MUSK [3]): < 20%
